In paper PMC9516332 (Frontiers in Oncology, 2022):
Where two headings read alike, the source gives them in different places.

Tested on: 134 cancer cell lines
Experiment: Cell viability assay (ATPlite, 72 hours), IC50 on cancer cell line panel

## CC#CC(=O)N1CCC[C@H]1c1nc(-c2ccc(C(=O)Nc3ccccn3)cc2)c2c(N)nccn12 [acalabrutinib]
HEC-6, read-out: IC50 in cell proliferation assay
  IC50: > 31.6 µM
Homo sapiens, 769-P, read-out: IC50 in cell proliferation assay
  IC50: > 31.6 µM
Homo sapiens, 786-0, read-out: IC50 in cell proliferation assay
  IC50: > 31.6 µM
Homo sapiens, A 172, read-out: IC50 in cell proliferation assay
  IC50: > 31.6 µM
Homo sapiens, A204, read-out: IC50 in cell proliferation assay
  IC50: > 31.6 µM
Homo sapiens, A498, read-out: IC50 in cell proliferation assay
  IC50: > 31.6 µM
Homo sapiens, A549, read-out: IC50 in cell proliferation assay
  IC50: > 31.6 µM
Homo sapiens, A704, read-out: IC50 in cell proliferation assay
  IC50: > 31.6 µM
Homo sapiens, A-375, read-out: IC50 in cell proliferation assay
  IC50: > 31.6 µM
Homo sapiens, A-427, read-out: IC50 in cell proliferation assay
  IC50: > 31.6 µM
Homo sapiens, ACHN, read-out: IC50 in cell proliferation assay
  IC50: 12.6 µM
Homo sapiens, AN3-CA, read-out: IC50 in cell proliferation assay
  IC50: > 31.6 µM
Homo sapiens, ASPC1, read-out: IC50 in cell proliferation assay
  IC50: > 31.6 µM
Homo sapiens, AU565, read-out: IC50 in cell proliferation assay
  IC50: 0.685 µM
Homo sapiens, BT-20, read-out: IC50 in cell proliferation assay
  IC50: > 31.6 µM
Homo sapiens, BT-474, read-out: IC50 in cell proliferation assay
  IC50: 0.594 µM
Homo sapiens, BT-549, read-out: IC50 in cell proliferation assay
  IC50: > 31.6 µM
Homo sapiens, BXPC-3, read-out: IC50 in cell proliferation assay
  IC50: > 31.6 µM
Homo sapiens, C-33-A, read-out: IC50 in cell proliferation assay
  IC50: 2.01 µM
Homo sapiens, CAL-27, read-out: IC50 in cell proliferation assay
  IC50: > 31.6 µM
Homo sapiens, CCF-STTG1, read-out: IC50 in cell proliferation assay
  IC50: > 31.6 µM
Homo sapiens, CCRF-CEM, read-out: IC50 in cell proliferation assay
  IC50: > 31.6 µM
Homo sapiens, COLO 205, read-out: IC50 in cell proliferation assay
  IC50: > 31.6 µM
Homo sapiens, COLO-829, read-out: IC50 in cell proliferation assay
  IC50: > 31.6 µM
Homo sapiens, DLD-1, read-out: IC50 in cell proliferation assay
  IC50: > 31.6 µM
Homo sapiens, DU-145, read-out: IC50 in cell proliferation assay
  IC50: > 31.6 µM
Homo sapiens, DU-4475, read-out: IC50 in cell proliferation assay
  IC50: > 31.6 µM
Homo sapiens, Daoy, read-out: IC50 in cell proliferation assay
  IC50: > 31.6 µM
Homo sapiens, DoTc2-4510, read-out: IC50 in cell proliferation assay
  IC50: 9.83 µM
Homo sapiens, EOL1, read-out: IC50 in cell proliferation assay
  IC50: 25.8 µM
Homo sapiens, FaDu, read-out: IC50 in cell proliferation assay
  IC50: 28.5 µM
Homo sapiens, G-361, read-out: IC50 in cell proliferation assay
  IC50: > 31.6 µM
Homo sapiens, HCC827, read-out: IC50 in cell proliferation assay
  IC50: > 31.6 µM
Homo sapiens, HCC4006, read-out: IC50 in cell proliferation assay
  IC50: 17.4 µM
Homo sapiens, HCT-15, read-out: IC50 in cell proliferation assay
  IC50: > 31.6 µM
Homo sapiens, HCT-116, read-out: IC50 in cell proliferation assay
  IC50: > 31.6 µM
Homo sapiens, HEC-1, read-out: IC50 in cell proliferation assay
  IC50: > 31.6 µM
Homo sapiens, HEC-1B, read-out: IC50 in cell proliferation assay
  IC50: > 31.6 µM
Homo sapiens, HL-60, read-out: IC50 in cell proliferation assay
  IC50: > 31.6 µM
Homo sapiens, HT, read-out: IC50 in cell proliferation assay
  IC50: > 31.6 µM
Homo sapiens, HT-1080, read-out: IC50 in cell proliferation assay
  IC50: > 31.6 µM
Homo sapiens, Hs746T, read-out: IC50 in cell proliferation assay
  IC50: 9.68 µM
Homo sapiens, Hs-578T, read-out: IC50 in cell proliferation assay
  IC50: > 31.6 µM
Homo sapiens, HuTu80, read-out: IC50 in cell proliferation assay
  IC50: > 31.6 µM
Homo sapiens, J82, read-out: IC50 in cell proliferation assay
  IC50: > 31.6 µM
Homo sapiens, Jurkat E6.1, read-out: IC50 in cell proliferation assay
  IC50: 29.6 µM
Homo sapiens, K562, read-out: IC50 in cell proliferation assay
  IC50: > 31.6 µM
Homo sapiens, KATO III, read-out: IC50 in cell proliferation assay
  IC50: 31.3 µM
Homo sapiens, KG-1, read-out: IC50 in cell proliferation assay
  IC50: > 31.6 µM
Homo sapiens, KLE, read-out: IC50 in cell proliferation assay
  IC50: > 31.6 µM
Homo sapiens, KMS-11, read-out: IC50 in cell proliferation assay
  IC50: > 31.6 µM
Homo sapiens, KU812, read-out: IC50 in cell proliferation assay
  IC50: > 31.6 µM
Homo sapiens, Kasumi 1, read-out: IC50 in cell proliferation assay
  IC50: > 31.6 µM
Homo sapiens, LC-2-ad, read-out: IC50 in cell proliferation assay
  IC50: 19.6 µM
Homo sapiens, LNCaP-Clone-FGC, read-out: IC50 in cell proliferation assay
  IC50: > 31.6 µM
Homo sapiens, LS174T, read-out: IC50 in cell proliferation assay
  IC50: > 31.6 µM
Homo sapiens, LS-411N, read-out: IC50 in cell proliferation assay
  IC50: > 31.6 µM
Homo sapiens, LoVo, read-out: IC50 in cell proliferation assay
  IC50: > 31.6 µM
